pIC50: −log10 of the molar value. Active and inactive are the calls of the source. The calls are words filed in the database; no cut-off is given here.
Columns and labels:
HCT-116 [1] = assay: Antitumor activity against human HCT-116 cells xenografted in iv dosed nude mouse model assessed as increase in apoptosis in tumor tissue measured for 23 days by TUNEL staining based analysis; format: functional, organism-based; details: dose 3-4 mg/kg, time 23.0 day
HCT-116 [2] = assay: Induction of apoptosis in human HCT-116 cells at 5 uM measured for 48 hrs by annexin V/PI staining based analysis; format: functional, cell-based
[3] = Toxicity in nude mouse xenografted with human HCT-116 cells assessed as change in plasma AST level at 3 to 4 mg/kg, iv measured for 23 days; format: organism-based; details: in vivo, 552 h, dose 3-4 mg/kg, time 23 day
HCT-116 [4] = assay: Antitumor activity against human HCT-116 cells xenografted in nude mouse assessed as decrease in tumor volume at 3 to 4 mg/kg, iv measured for 23 days; format: functional, organism-based; details: dose 3-4 mg/kg, time 23.0 day
HCT-116 [5] = assay: Antitumor activity against human HCT-116 cells xenografted in nude mouse model assessed as reduction in Ki67 expression in tumor tissue at 3 to 4 mg/kg, iv administered for 23 days by […] analysis; format: functional, organism-based; details: dose 3-4 mg/kg, time 23.0 day
[6] = Toxicity in nude mouse xenografted with human HCT-116 cells assessed as change in plasma LDH level at 3 to 4 mg/kg, iv measured for 23 days; format: organism-based; details: in vivo, 552 h, dose 3-4 mg/kg, time 23 day
HCT-116 [7] = assay: Antitumor activity against human HCT-116 cells xenografted in nude mouse assessed as reduction in tumor weight at 3 to 4 mg/kg, iv measured for 23 days; format: functional, organism-based; details: dose 3-4 mg/kg, time 23.0 day
HCT-116 [8] = assay: Downregulation of FAT1 protein expression in human HCT-116 cells measured at 24 to 48 hrs by Western blot analysis; format: functional, cell-based; details: dose 0.5-5 µM, time 24-48 hrs
HCT-116 [9] = assay: Induction of cell cycle arrest in human HCT-116 cells assessed as upregulation of 14-3-3sigma mRNA expression at 2.5 to 5 uM measured after 24 hrs by qRT-PCR analysis; format: functional, cell-based; details: dose 2.5-5 µM
[10] = Toxicity in nude mouse xenografted with human HCT-116 cells assessed as body weight loss at 3 to 4 mg/kg, iv measured for 23 days; format: organism-based; details: in vivo, 552 h, dose 3-4 mg/kg, time 23 day
[11] = Antiproliferative activity against human HS27 cells assessed as reduction in cell viability measured after 48 hrs by MTT assay; format: toxicity, cell-based
HCT-116 [12] = assay: Induction of G2/M phase cell cycle arrest in human HCT-116 cells assessed as decrease in cyclin A2 protein expression at 2.5 to 5 uM measured for 48 hrs by Western blot analysis; format: functional, cell-based; details: dose 2.5-5 µM
SW480 = assay: Antiproliferative activity against human SW480 cells assessed as reduction in cell viability measured after 48 hrs by MTT assay; format: functional, cell-based; details: SW480, 48 h
HCT-116 [13] = assay: Upregulation of SERPINE1 mRNA expression in human HCT-116 cells at 2.5 to 5 uM measured after 24 hrs by qRT-PCR analysis; format: functional, cell-based; details: dose 2.5-5 µM
HCT-116 [14] = assay: Antiproliferative activity against human HCT-116 cells assessed as reduction in cell viability measured after 48 hrs by BrdU staining based assay; format: functional; details: HCT-116, 48 h
HCT-116 [15] = assay: Induction of cell cycle arrest in human HCT-116 cells assessed as upregulation of p53 protein expression at 2.5 to 5 uM measured for 48 hrs by Western blot analysis; format: functional, cell-based; details: dose 2.5-5 µM
HCT-116 [16] = assay: Induction of G2/M phase cell cycle arrest in human HCT-116 cells assessed as decrease in cyclin A2 mRNA expression at 2.5 to 5 uM measured after 24 hrs by qRT-PCR analysis; format: functional, cell-based; details: dose 2.5-5 µM
HCT-116 [17] = assay: Induction of cell cycle arrest in human HCT-116 cells assessed as accumulation of cells at G2 phase at 2.5 to 5 uM measured after 48 hrs by PI staining based flow cytometry method; format: functional; details: dose 2.5-5 µM
HCT-116 [18] = assay: Downregulation of FAT1 mRNA expression in human HCT-116 cells at 2.5 to 5 uM measured after 24 hrs by qRT-PCR analysis; format: functional, cell-based; details: dose 2.5-5 µM
HCT-116 [19] = assay: Antiproliferative activity against human HCT-116 cells assessed as reduction in cell viability measured after 48 hrs by MTT assay; format: functional, cell-based; details: HCT-116, 48 h
[20] = Antiproliferative activity against human PBMC cells assessed as reduction in cell viability measured after 48 hrs by MTT assay; format: toxicity, cell-based
HCT-116 [21] = assay: Induction of G2/M phase cell cycle arrest in human HCT-116 cells assessed as decrease in CDK1 protein expression at 2.5 to 5 uM measured for 48 hrs by Western blot analysis; format: functional, cell-based; details: dose 2.5-5 µM
[22] = Toxicity in nude mouse xenografted with human HCT-116 cells assessed as change in plasma ALT level at 3 to 4 mg/kg, iv measured for 23 days; format: organism-based; details: in vivo, 552 h, dose 3-4 mg/kg, time 23 day
[23] = target: T1, Nuclear factor NF-kappa-B complex (Homo sapiens) (UniProt Q00653+P19838+Q04206); assay: Inhibition of TNFalpha induced-NFkB phosphorylation in human HCT-116 cells at 5 uM pretreated for 24 hrs followed by TNFalpha induction and measured after 24 hrs by Western blot analysis; format: cell-based; details: time 48.0 hrs
HCT-116 [24] = assay: Induction of apoptosis in human HCT-116 cells assessed as decrease in Bcl2 mRNA expression at 5 uM measured for 48 hrs by qRT-PCR analysis; format: functional, cell-based
HCT-116 [25] = assay: Downregulation of PDCD4 mRNA expression in human HCT-116 cells by qRT-PCR analysis; format: functional, cell-based; details: dose 1-5 µM
HCT-116 [26] = assay: Antiproliferative activity against human HCT-116 cells assessed as reduction in cell viability at 5 uM measured after 48 hrs by MTT assay; format: functional, cell-based
HT-29 = assay: Antiproliferative activity against human HT-29 cells assessed as reduction in cell viability measured after 48 hrs by MTT assay; format: functional, cell-based; details: HT-29, 48 h
HCT-116 [27] = assay: Antitumor activity against human HCT-116 cells xenografted in nude mouse assessed as decrease in tumor volume at 4 mg/kg, iv measured at day 9; format: functional, organism-based; details: time 9.0 day
HCT-116 [28] = assay: Antitumor activity against human HCT-116 cells xenografted in nude mouse model assessed as reduction in FAT1 expression in tumor tissue at 3 to 4 mg/kg, iv administered for 23 days by IHC analysis; format: functional, organism-based; details: dose 3-4 mg/kg, time 23.0 day
HCT-116 [29] = assay: Antitumor activity against human HCT-116 cells xenografted in nude mouse model assessed as increase in p53 protein expression in tumor tissue at 3 to 3.5 mg/kg, iv administered for 23 days by Western blot analysis; format: functional, organism-based; details: dose 3-3.5 mg/kg, time 23.0 day
[30] = Toxicity in nude mouse xenografted with human HCT-116 cells assessed as change in plasma CK level at 3 to 4 mg/kg, iv measured for 23 days; format: organism-based; details: in vivo, 552 h, dose 3-4 mg/kg, time 23 day
[31] = Toxicity in nude mouse xenografted with human HCT-116 cells assessed as effect on body weight at 3 to 4 mg/kg, iv measured for 23 days; format: organism-based; details: in vivo, 552 h, dose 3-4 mg/kg, time 23 day
HCT-116 [32] = assay: Induction of cell cycle arrest in human HCT-116 cells assessed as upregulation of p21 mRNA expression at 2.5 to 5 uM measured after 24 hrs by qRT-PCR analysis; format: functional, cell-based; details: dose 2.5-5 µM
HCT-116 [33] = assay: Antitumor activity against human HCT-116 cells xenografted in iv dosed nude mouse assessed as decrease in tumor volume measured for 23 days; format: functional, organism-based; details: dose 3-4 mg/kg, time 23.0 day
HCT-116 [34] = assay: Induction of cell cycle arrest in human HCT-116 cells assessed as upregulation of p53 mRNA expression at 2.5 to 5 uM measured after 24 hrs by qRT-PCR analysis; format: functional, cell-based; details: dose 2.5-5 µM
HCT-116 [35] = assay: Induction of apoptosis in human HCT-116 cells assessed as increase in Bax mRNA expression at 5 uM measured for 48 hrs by qRT-PCR analysis; format: functional, cell-based
[36] = target: T1, Nuclear factor NF-kappa-B complex (Homo sapiens); assay: Inhibition of TNFalpha induced-NFkB phosphorylation in human HCT-116 cells at 1 to 5 uM pretreated for 24 hrs followed by TNFalpha induction and measured after 24 hrs by Western blot analysis; format: cell-based; details: dose 1-5 µM, time 48.0 hrs

T1 sequence (P19838 whole entry, looked up): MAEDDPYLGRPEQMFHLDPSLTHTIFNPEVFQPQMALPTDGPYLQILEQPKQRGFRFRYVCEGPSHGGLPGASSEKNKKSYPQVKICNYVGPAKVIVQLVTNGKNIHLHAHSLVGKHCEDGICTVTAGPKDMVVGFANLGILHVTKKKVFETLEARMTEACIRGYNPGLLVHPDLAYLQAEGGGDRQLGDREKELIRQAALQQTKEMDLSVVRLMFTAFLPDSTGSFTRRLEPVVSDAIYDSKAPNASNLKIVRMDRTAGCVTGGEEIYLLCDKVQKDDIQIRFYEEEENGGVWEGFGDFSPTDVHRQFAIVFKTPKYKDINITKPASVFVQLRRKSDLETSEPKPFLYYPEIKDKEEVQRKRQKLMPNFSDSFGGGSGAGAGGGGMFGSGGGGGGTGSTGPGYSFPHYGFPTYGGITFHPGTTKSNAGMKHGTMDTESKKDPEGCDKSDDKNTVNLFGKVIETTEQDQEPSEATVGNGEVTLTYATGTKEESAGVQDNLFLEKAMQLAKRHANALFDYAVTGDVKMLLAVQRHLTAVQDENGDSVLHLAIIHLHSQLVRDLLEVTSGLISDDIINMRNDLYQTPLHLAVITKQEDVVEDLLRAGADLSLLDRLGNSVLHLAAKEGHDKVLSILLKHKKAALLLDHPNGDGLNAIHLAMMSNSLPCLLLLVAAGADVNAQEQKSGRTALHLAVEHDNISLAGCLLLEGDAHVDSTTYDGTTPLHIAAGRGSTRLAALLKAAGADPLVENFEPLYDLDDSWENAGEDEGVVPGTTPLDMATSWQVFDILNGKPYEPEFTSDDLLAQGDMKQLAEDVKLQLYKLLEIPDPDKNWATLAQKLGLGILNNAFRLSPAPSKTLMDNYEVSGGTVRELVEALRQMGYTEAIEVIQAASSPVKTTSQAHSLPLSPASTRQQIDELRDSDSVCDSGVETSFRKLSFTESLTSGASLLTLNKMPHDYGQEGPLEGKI
T1 sequence (Q00653 whole entry, looked up): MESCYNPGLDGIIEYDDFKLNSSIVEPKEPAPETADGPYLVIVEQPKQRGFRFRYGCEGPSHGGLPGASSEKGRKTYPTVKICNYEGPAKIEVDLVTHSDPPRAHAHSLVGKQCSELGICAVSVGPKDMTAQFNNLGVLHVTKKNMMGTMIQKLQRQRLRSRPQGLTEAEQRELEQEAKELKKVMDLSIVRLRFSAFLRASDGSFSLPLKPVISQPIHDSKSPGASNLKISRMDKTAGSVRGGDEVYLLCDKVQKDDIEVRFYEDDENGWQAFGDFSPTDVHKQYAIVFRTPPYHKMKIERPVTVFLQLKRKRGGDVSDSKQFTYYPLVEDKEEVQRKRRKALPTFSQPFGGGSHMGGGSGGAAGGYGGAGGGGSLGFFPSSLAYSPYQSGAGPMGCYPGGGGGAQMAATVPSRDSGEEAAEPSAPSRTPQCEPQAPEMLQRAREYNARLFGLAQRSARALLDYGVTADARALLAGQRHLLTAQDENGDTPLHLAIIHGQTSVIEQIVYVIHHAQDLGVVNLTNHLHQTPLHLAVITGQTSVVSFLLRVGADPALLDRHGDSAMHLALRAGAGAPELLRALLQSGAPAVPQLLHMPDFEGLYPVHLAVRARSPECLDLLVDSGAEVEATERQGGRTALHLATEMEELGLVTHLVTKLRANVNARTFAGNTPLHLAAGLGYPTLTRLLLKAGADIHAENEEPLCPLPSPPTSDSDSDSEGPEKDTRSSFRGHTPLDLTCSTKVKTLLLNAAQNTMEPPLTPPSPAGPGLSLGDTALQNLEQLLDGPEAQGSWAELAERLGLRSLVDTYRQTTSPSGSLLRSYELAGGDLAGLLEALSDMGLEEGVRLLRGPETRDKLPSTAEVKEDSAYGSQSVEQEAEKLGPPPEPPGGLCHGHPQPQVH
T1 sequence (Q04206 whole entry, looked up): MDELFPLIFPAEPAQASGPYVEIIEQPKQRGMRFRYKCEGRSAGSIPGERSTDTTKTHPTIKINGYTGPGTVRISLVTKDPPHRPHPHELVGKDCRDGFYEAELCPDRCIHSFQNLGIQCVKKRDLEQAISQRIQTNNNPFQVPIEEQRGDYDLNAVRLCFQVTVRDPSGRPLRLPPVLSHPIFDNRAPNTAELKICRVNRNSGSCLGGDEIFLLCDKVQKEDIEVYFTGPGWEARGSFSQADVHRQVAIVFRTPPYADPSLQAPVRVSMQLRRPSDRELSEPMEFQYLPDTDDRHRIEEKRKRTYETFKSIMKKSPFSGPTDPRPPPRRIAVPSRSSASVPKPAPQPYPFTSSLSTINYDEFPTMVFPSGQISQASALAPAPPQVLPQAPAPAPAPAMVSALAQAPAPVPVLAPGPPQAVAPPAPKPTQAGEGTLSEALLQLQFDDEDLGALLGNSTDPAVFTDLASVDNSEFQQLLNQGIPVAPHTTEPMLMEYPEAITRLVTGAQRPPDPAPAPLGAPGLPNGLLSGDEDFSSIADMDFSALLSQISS

SMILES: C=C(C)[C@H]1CC[C@@](C)(O)[C@@H](C2=C(O)[C@@](C)(CC=C(C)C)C(=O)C(C(=O)C(C)C)=C2O)C1
- Activity (HCT-116 [1]): Dose-Dependent Effect
- Activity (HCT-116 [2]): Active
- Activity [3]: Non-Toxic
- Activity (HCT-116 [4]): Active
- Activity (HCT-116 [5]): Active
- Activity [6]: Non-Toxic
- Activity (HCT-116 [7]): Active
- Activity (HCT-116 [8]): Dose-Dependent Effect
- Activity (HCT-116 [9]): Active
- Activity [10]: Non-Toxic
- IC50 at 48 h [11]: > 100 µM
- Activity (HCT-116 [12]): Active
- pIC50 (SW480): 4.65
- Activity (HCT-116 [13]): Active
- pIC50 (HCT-116 [14]): 5.82
- Activity (HCT-116 [15]): Active
- Activity (HCT-116 [16]): Active
- Activity (HCT-116 [17]): Active
- Activity (HCT-116 [18]): Active
- pIC50 (HCT-116 [19]): 5.36
- IC50 at 48 h [20]: > 100 µM
- Activity (HCT-116 [21]): Active
- Activity [22]: Non-Toxic
- inhibition [23]: Active
- Activity (HCT-116 [24]): Active
- Activity (HCT-116 [25]): Dose-Dependent Effect
- Activity (HCT-116 [26]): Active
- pIC50 (HT-29): 4.94
- Activity (HCT-116 [27]): Active
- Activity (HCT-116 [28]): Active
- Activity (HCT-116 [29]): Active
- Activity [30]: Non-Toxic
- Activity [31]: Non-Toxic
- Activity (HCT-116 [32]): Active
- Activity (HCT-116 [33]): Dose-Dependent Effect
- Activity (HCT-116 [34]): Active
- Activity (HCT-116 [35]): Active
- inhibition [36]: inactive
